# Earlier results as cited in patent US20150045610A1, “METHOD OF MODIFYING SPERMATOGENESIS, SPERMIOGENESIS AND/OR FERTILITY IN MAMMALS” (Monell Chemical Senses Center, priority 2012, published 2015).
# Biological target: T1, human T1R3 receptor (Homo sapiens, UniProt Q7RTX0)
# T1 construct: expressed in transfected cells
# T1 sequence (Q7RTX0 21-852): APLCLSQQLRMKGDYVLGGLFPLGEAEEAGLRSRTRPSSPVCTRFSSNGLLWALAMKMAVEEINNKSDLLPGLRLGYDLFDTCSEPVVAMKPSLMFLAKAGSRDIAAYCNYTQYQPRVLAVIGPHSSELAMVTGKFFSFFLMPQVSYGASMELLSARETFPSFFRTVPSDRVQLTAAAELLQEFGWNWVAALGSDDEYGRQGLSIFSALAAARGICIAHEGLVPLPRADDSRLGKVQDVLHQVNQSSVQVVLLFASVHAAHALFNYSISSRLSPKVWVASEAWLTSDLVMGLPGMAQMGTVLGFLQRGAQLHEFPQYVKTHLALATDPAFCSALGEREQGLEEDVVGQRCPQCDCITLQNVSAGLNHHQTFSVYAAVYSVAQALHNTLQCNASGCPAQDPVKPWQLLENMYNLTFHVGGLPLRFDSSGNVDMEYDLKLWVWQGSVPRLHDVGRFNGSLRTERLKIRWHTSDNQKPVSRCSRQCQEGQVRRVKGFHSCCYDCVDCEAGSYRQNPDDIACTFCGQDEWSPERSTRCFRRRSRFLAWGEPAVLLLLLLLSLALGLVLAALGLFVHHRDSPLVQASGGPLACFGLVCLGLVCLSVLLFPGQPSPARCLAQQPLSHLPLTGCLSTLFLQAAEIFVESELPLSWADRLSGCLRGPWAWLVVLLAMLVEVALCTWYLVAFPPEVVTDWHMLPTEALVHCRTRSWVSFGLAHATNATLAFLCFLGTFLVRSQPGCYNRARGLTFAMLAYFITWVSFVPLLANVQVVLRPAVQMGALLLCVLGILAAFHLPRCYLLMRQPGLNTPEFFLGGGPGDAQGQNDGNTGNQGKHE
# T1 sequence (Q8TE23 20-839 partner): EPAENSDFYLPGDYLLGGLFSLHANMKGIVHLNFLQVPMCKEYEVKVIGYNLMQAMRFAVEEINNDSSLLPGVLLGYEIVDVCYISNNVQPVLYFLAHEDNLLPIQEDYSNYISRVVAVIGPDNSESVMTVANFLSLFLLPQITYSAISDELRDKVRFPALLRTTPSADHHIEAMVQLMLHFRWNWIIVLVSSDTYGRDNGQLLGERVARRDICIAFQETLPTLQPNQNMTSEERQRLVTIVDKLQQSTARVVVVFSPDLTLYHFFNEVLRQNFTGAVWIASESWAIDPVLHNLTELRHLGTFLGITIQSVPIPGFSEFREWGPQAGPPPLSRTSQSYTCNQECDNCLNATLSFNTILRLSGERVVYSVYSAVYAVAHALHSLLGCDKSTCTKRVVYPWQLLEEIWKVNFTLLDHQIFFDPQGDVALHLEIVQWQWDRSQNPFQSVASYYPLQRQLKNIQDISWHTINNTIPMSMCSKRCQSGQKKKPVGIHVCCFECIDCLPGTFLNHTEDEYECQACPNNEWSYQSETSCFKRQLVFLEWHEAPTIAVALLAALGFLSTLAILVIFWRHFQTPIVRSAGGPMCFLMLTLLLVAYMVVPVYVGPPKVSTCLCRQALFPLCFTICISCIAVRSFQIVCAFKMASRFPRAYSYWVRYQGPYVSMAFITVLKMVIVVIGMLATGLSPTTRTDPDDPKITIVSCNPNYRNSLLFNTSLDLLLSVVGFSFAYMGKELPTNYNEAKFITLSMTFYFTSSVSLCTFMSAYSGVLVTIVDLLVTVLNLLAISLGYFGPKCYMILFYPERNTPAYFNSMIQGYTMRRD
# Conditions: cited from earlier work
smiles,measurement,value
CC(C)(Oc1ccc(Cl)cc1)C(=O)O [clofibric acid],T1R3 inhibition compared with PPAR-α activation,comparable to their activation of PPAR-α
